From patent publication US10543216B2, “Modus of administration of iron, and new formulations adapted for the said goal” (BIOFER S.P.A., priority 2013, dated 2020)

Tested on: Pig esophageal epithelium
Experiment: in vitro permeation in the Franz cell (model of sublingual absorption)
Conditions: Franz cell, pig esophageal epithelium, 37° C.
Protocol: Sublingual absorption of Fe++ compounds was evaluated by means of in vitro permeation experiments using the Franz cell exemplified in FIG. 1. Pig esophageal epithelium was used as membrane. This experimental model is recognized as valid and reliable in the assessment of sublingual absorption of drugs [I. Diaz Del Consuelo, G. P. Pizzolato, F. Falsom, R. H. Guy, and Y. Jacques.: Evaluation of pig esophageal mucosa as a permeability barrier model for buccosal tissue. J. Pharm. […] Arch. […] Membrane preparation occurred by following the method described here. The esophagi were taken from the animals within one hour after sacrifice. The mucosa was separated from the muscle tissue with a lancet. To separate the epithelium, the mucosa was immersed in distilled water at 60° C. for 2 minutes and then the epithelium was removed from the underlying tissue with the aid of a spatula. The tissues thus prepared were stored at −20° C. until the time of use, when they were thawed to room temperature before being mounted on the vertical diffusion cells of the Franz type, a schematic view of which is shown in FIG. 1. The esophageal epithelium was placed on a regenerated cellulose filter (pore diameter 0.45 μm) with the luminal side facing up, and mounted between the donor and receptor compartments of the Franz cells. […] The exposed surface was 0.6 cm^2. The receptor compartment was filled with approximately 4 ml of physiological solution (0.9% NaCl w/v) and kept under constant magnetic agitation for the entire duration of the experiment. The entire system was thermostat-controlled at 37° C. Sampling of the receptor compartment was performed by drawing 200 μl of receptor solution, which were replaced immediately with an equal volume of fresh physiological solution. The samples were taken at preset time intervals, specifically at 0, 1, 2, 3, 4, 5 and 6 hours.
4 g of powder were suspended in 10 ml of physiological solution and left under agitation for 15 minutes, then the solution was filtered with regenerated cellulose filters (pore diameter 0.45 μm).
6 g of powder were suspended in 10 ml of physiological solution. The suspension was left under magnetic agitation for 25 minutes and then filtered with regenerated cellulose filters (pore diameter 0.45 μm).
7 g of powder were suspended in 6 ml of physiological solution. The suspension was left under magnetic agitation for 1 hour; at the end it was filtered with regenerated cellulose filters (pore diameter 0.45 μm).
An excess of ascorbic acid (2 g) was added to the solution. The suspension was left under magnetic agitation for 30 minutes and after filtration through regenerated cellulose filters (pore diameter 0.45 μm) was used as it was.
4 g of powder were suspended in 10 ml of physiological solution. The suspension was left under magnetic agitation for 15 hours, at the end of which it was filtered with regenerated cellulose filters (pore diameter 0.45 μm).
An excess of powder was suspended in 10 ml of physiological solution. The suspension was left under magnetic agitation for 15 hours, at the end of which it was filtered with regenerated cellulose filters (pore diameter 0.45 μm).

For ferric citrate, the “permeation / absorption through the epithelium (in words)” value was “appreciable only at very low pH values”.
